According to ChEMBL document CHEMBL1126059 (J Med Chem, 1992):
Where a SMILES comes first, the peptide text is derived from it. [ ]: non-standard residue; d: D form. The star is where a group is joined. Boc = CC(C)(C)OC(=O)*; OBn = c1ccc(CO*)cc1; For = O=C*

Assays:
Substance-P receptor [1] = molecular target: T1, Substance-P receptor (Cavia porcellus, UniProt P30547); assay: Displacement of specific binding of [3H]SP to tachykinin receptor 1 from the isolated guinea pig tracheal strips
Substance-P receptor [2] = molecular target: T1, Substance-P receptor; assay: In vitro inhibitory concentration that gave 50% displacement of specific binding of [3H]SP to Tachykinin receptor 1 from the isolated guinea pig tracheal strips; No inhibition at 10E-4 M.

T1 sequence (P30547 whole entry): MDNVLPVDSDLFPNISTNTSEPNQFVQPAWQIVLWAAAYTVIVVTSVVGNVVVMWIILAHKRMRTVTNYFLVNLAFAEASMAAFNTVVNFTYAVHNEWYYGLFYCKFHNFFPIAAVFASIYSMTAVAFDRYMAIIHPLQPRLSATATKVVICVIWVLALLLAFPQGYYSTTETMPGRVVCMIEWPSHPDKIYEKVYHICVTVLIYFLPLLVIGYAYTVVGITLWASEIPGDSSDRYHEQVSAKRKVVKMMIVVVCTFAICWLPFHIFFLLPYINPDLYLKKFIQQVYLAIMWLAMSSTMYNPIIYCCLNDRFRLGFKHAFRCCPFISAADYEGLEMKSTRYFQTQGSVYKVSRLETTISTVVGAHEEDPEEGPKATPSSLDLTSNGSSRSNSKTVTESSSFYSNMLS

Row | Structure (SMILES) | IC50 (Substance-P receptor [1]) [nM] | IC50 (Substance-P receptor [2])
1 | CC(C)(C)OC(=O)N[C@@H](CCC(N)=O)C(=O)N[C@H](Cc1cn(C=O)c2ccccc12)C(=O)N1CCC[C@H]1C(=O)OCc1ccccc1 |  | Not Active
2 | CC(C)(C)OC(=O)N[C@@H](CCC(N)=O)C(=O)N[C@H](Cc1cn(C=O)c2ccccc12)C(=O)N1Cc2ccccc2CC1C(=O)OCc1ccccc1 (stereo not given in full) | 140 | 
3 | CC(C)C[C@@H](NC(=O)[C@H](CCC(N)=O)NC(=O)OC(C)(C)C)C(=O)N[C@@H](Cc1ccccc1)C(=O)OCc1ccccc1 | 1000 | 
4 | NC(=O)CC[C@H](NC(=O)[C@@H]1CCC(=O)N1)C(=O)N[C@H](Cc1c[nH]c2ccccc12)C(=O)O | > 100000 | 
5 | CC(C)(C)OC(=O)N1CCC[C@@H]1C(=O)N[C@@H](CCC(N)=O)C(=O)N[C@@H](CCC(N)=O)C(=O)OCc1ccccc1 | 100000 | 
6 | CC(C)(C)OC(=O)N[C@@H](CO)C(=O)N[C@H](Cc1cn(C=O)c2ccccc12)C(=O)N[C@@H](Cc1ccccc1)C(=O)OCc1ccccc1 (Boc-Ser-[dW](For)-Phe-OBn) | 110 | 
7 | CC(C)(C)OC(=O)N[C@@H](CCC(N)=O)C(=O)N[C@H](Cc1cn(C=O)c2ccccc12)C(=O)N1C(C(=O)c2ccccc2)CC[C@H]1C(=O)OCc1ccccc1 (stereo not given in full) | 450 | 
8 | C[C@@H](O)[C@H](NC(=O)OC(C)(C)C)C(=O)N[C@H](Cc1cn(C=O)c2ccccc12)C(=O)N[C@@H](Cc1ccccc1)C(=O)OCc1ccccc1 (Boc-Thr-[dW](For)-Phe-OBn) | 110 | 
9 | CC(C)(C)OC(=O)N[C@@H](CCC(N)=O)C(=O)N[C@H](Cc1cn(C=O)c2ccccc12)C(=O)NCC(=O)OCc1ccccc1 |  | Not Active
10 | CC(C)(C)OC(=O)N1CCC[C@@H]1C(=O)N[C@@H](CCC(N)=O)C(=O)N[C@@H](CCC(N)=O)C(N)=O | > 100000 | 
11 | CC(C)(C)OC(=O)N[C@@H](CCC(N)=O)C(=O)N[C@H](Cc1cn(C=O)c2ccccc12)C(=O)N[C@@H](Cc1ccccc1)C(=O)OCC1CCCCC1 | 400 | 
12 | NC(=O)CC[C@H](NC(=O)[C@H](CCC(N)=O)NC(=O)[C@H]1CCCN1)C(=O)O | > 100000 | 
13 | O=C1CC[C@@H](C(=O)N[C@H](Cc2c[nH]c3ccccc23)C(=O)N[C@@H](Cc2ccccc2)C(=O)O)N1 | > 100000 | 
14 | CC(C)[C@H](NC(=O)[C@@H](Cc1cn(C=O)c2ccccc12)NC(=O)[C@H](CCC(N)=O)NC(=O)OC(C)(C)C)C(=O)OCc1ccccc1 |  | Not Active
15 | CC(C)(C)OC(=O)NCC(=O)N[C@H](Cc1cn(C=O)c2ccccc12)C(=O)N[C@@H](Cc1ccccc1)C(=O)OCc1ccccc1 | 420 | 
16 | CSCC[C@@H](NC(=O)[C@H](CCC(N)=O)NC(=O)OC(C)(C)C)C(=O)N[C@@H](Cc1ccccc1)C(=O)OCc1ccccc1 | 790 | 
17 | CC(C)(C)OC(=O)N[C@@H](CCC(N)=O)C(=O)N[C@H](Cc1cn(C=O)c2ccccc12)C(=O)N[C@@H](Cc1ccccc1)C(=O)O | > 100000 | 

More lines, now with the values ahead:

Row | IC50 (Substance-P receptor [1]) [nM] | IC50 (Substance-P receptor [2]) | Structure (SMILES)
18 | 260 |  | CC(C)(C)OC(=O)N[C@@H](Cc1ccc(O)cc1)C(=O)N[C@H](Cc1cn(C=O)c2ccccc12)C(=O)N[C@@H](Cc1ccccc1)C(=O)OCc1ccccc1
19 | > 100000 |  | NC(=O)CC[C@H](NC(=O)OCc1ccccc1)C(=O)N[C@@H](CCC(N)=O)C(=O)N[C@H](Cc1c[nH]c2ccccc12)C(=O)O
20 | 1000 |  | CC(C)(C)OC(=O)N[C@@H](CCC(N)=O)C(=O)N[C@@H](Cc1ccccc1)C(=O)N[C@@H](Cc1ccccc1)C(=O)OCc1ccccc1
21 | 360 |  | CC(C)(C)OC(=O)N[C@@H](CCC(N)=O)C(=O)N[C@@H](Cc1cn(C=O)c2ccccc12)C(=O)N[C@@H](Cc1ccccc1)C(=O)OCc1ccccc1
22 | 90 |  | CC(C)(C)OC(=O)N[C@@H](CCC(N)=O)C(=O)N[C@H](Cc1cn(C=O)c2ccccc12)C(=O)N[C@@H](Cc1ccccc1)C(=O)OCc1ccccc1
23 | 390 |  | CC(C)(C)OC(=O)N[C@@H](CCC(N)=O)C(=O)N[C@H](Cc1cn(C=O)c2ccccc12)C(=O)N[C@@H](Cc1ccc(O)cc1)C(=O)OCc1ccccc1
24 | 10000 |  | O=C(N[C@H](Cc1c[nH]c2ccccc12)C(=O)N[C@@H](Cc1ccccc1)C(=O)N[C@H](Cc1c[nH]c2ccccc12)C(=O)OCc1ccccc1)OCc1ccccc1
25 | > 100000 |  | O=C(N[C@@H](Cc1ccccc1)C(=O)N[C@H](Cc1c[nH]c2ccccc12)C(=O)N[C@H](Cc1c[nH]c2ccccc12)C(=O)O)OCc1ccccc1
26 | 550 |  | CC(C)(C)OC(=O)N[C@@H](CCC(N)=O)C(=O)N[C@H](Cc1c[nH]c2ccccc12)C(=O)N[C@@H](Cc1ccccc1)C(=O)OCc1ccccc1
27 | 100000 |  | O=C(N[C@@H](Cc1ccccc1)C(=O)N[C@H](Cc1c[nH]c2ccccc12)C(=O)N[C@H](Cc1c[nH]c2ccccc12)C(=O)OCc1ccccc1)OCc1ccccc1
28 | > 100000 |  | CC(C)(C)OC(=O)N[C@@H](CCC(N)=O)C(=O)N[C@H](Cc1c[nH]c2ccccc12)C(=O)N[C@@H](Cc1ccccc1)C(=O)O
29 | 770 |  | CC(C)(C)OC(=O)N[C@@H](CCC(N)=O)C(=O)N[C@H](Cc1cn(C=O)c2ccccc12)C(=O)N[C@H](Cc1ccccc1)C(=O)OCc1ccccc1
30 | 1000 |  | CC(C)(C)OC(=O)N[C@@H](CCC(N)=O)C(=O)N[C@H](Cc1cn(C=O)c2ccccc12)C(=O)N[C@@H](Cc1ccccc1)C(=O)OCc1ccc(Cl)cc1
31 | 10000 |  | NC(=O)CC[C@H](NC(=O)[C@H]1CCCN1C(=O)OCc1ccccc1)C(=O)N[C@@H](CCC(N)=O)C(=O)OCc1ccccc1
32 | 240 |  | CN(C(=O)[C@@H](Cc1cn(C=O)c2ccccc12)NC(=O)[C@H](CCC(N)=O)NC(=O)OC(C)(C)C)[C@@H](Cc1ccccc1)C(=O)OCc1ccccc1
33 | 500 |  | CC(C)(C)OC(=O)N[C@@H](CCC(N)=O)C(=O)N[C@H](Cc1cn(C=O)c2ccccc12)C(=O)N[C@@H](Cc1ccccc1)C(=O)OCCc1ccccc1
34 | 210 |  | NC(=O)CC[C@H](N)C(=O)N[C@H](Cc1cn(C=O)c2ccccc12)C(=O)N[C@@H](Cc1ccccc1)C(=O)OCc1ccccc1
35 | 600 |  | NC(=O)CC[C@H](NC(=O)[C@H](CCC(N)=O)NC(=O)[C@H]1CCCN1)C(=O)N[C@H](Cc1c[nH]c2ccccc12)C(=O)N[C@@H](Cc1ccccc1)C(=O)N[C@H](Cc1c[nH]c2ccccc12)C(=O)N[C@H](Cc1c[nH]c2ccccc12)C(=O)N[C@@H](Cc1ccccc1)C(N)=O
36 | > 100000 |  | NC(=O)[C@@H](Cc1c[nH]c2ccccc12)NC(=O)[C@H](Cc1ccccc1)NC(=O)[C@@H](Cc1c[nH]c2ccccc12)NC(=O)OCc1ccccc1
37 | 23800 |  | O=C(N[C@H](Cc1c[nH]c2ccccc12)C(=O)N[C@@H](Cc1ccccc1)C(=O)N[C@H](Cc1c[nH]c2ccccc12)C(=O)O)OCc1ccccc1
38 | 38700 |  | CC(C)(C)OC(=O)N[C@@H](CCC(N)=O)C(=O)N[C@H](Cc1c[nH]c2ccccc12)C(=O)N[C@@H](Cc1ccccc1)C(N)=O
39 | 380 |  | CC(C)(C)OC(=O)N[C@@H](CCC(N)=O)C(=O)N[C@H](Cc1ccccc1)C(=O)N[C@@H](Cc1ccccc1)C(=O)OCc1ccccc1
40 | > 100000 |  | CC(C)(C)OC(=O)N[C@H](Cc1c[nH]c2ccccc12)C(=O)N[C@H](Cc1c[nH]c2ccccc12)C(=O)N[C@@H](Cc1ccccc1)C(=O)OCc1ccccc1
